Assay results taken from EPA's ToxRefDB 2.
Where a name gives a salt, the structure may show the parent alone.

Columns and labels:
mouse [1] = conditions: Subchronic oral toxicity in rodents, b6c3f1, Water, dose end: 14 week, group: systemic
rat [2] = conditions: Subchronic oral toxicity in rodents, fischer, Water, dose end: 14 week, group: systemic
mouse [3] = conditions: Subchronic oral toxicity in rodents, b6c3f1, Gavage/Intubation, dose end: 13 week, group: systemic, systemic / hematology / methemoglobin / methemoglobin + systemic / pathology microscopic / bone marrow / hemosiderosis + systemic / …
rat [4] = conditions: Subchronic oral toxicity in rodents, fischer, Gavage/Intubation, dose end: 13 week, group: systemic, systemic / hematology / anemia / anemia - macrocytic + systemic / hematology / erythrocyte (rbc) count differential / erythrocyte (rbc) + …
rat [5] = conditions: Subchronic oral toxicity in rodents, fischer, Feed, dose end: 13 week, group: systemic
mouse [6] = conditions: Subchronic oral toxicity in rodents, b6c3f1, Feed, dose end: 13 week, group: systemic, systemic / pathology microscopic / kidney / mineralization + systemic / in life observation / body weight / body weight gain
rat [7] = conditions: Carcinogenicity, fischer, Oral, Feed, dose end: 104 week, group: systemic
mouse [8] = conditions: Carcinogenicity; b6c3f1; Oral; Feed; dose end: 103 week; group: systemic; systemic / in life observation / body weight / body weight + systemic / pathology microscopic / kidney / mineralization + systemic / …
rat [9] = conditions: Prenatal developmental toxicity study; other; Inhalation; Nose-Only; dose end: 16 GD; group: maternal; systemic / in life observation / body weight / body weight gain + systemic / in life observation / food consumption / food consumption
mouse [10] = conditions: Subchronic oral toxicity in rodents, b6c3f1, Feed, dose end: 13 week, group: systemic, systemic / in life observation / body weight / body weight
mouse [11] = conditions: Combined chronic toxicity/carcinogenicity; b6c3f1; Oral; Feed; dose end: 103 week; group: systemic; systemic / in life observation / body weight / body weight
rat [12] = conditions: Carcinogenicity; fischer; Oral; Feed; dose end: 103 week; group: systemic; systemic / pathology microscopic / pituitary gland / adenoma + systemic / pathology microscopic / pituitary gland / adenoma/carcinoma …
rat [13] = conditions: Subchronic oral toxicity in rodents, fischer, Feed, dose end: 13 week, group: systemic, systemic / pathology microscopic / liver / vacuolization
rat [14] = conditions: Combined chronic toxicity/carcinogenicity, fischer, Oral, Feed, dose end: 103 week, group: systemic
mouse [15] = conditions: Prenatal developmental toxicity study, cd1, Oral, Gavage/Intubation, dose end: 15 GD
mouse [16] = conditions: Carcinogenicity; b6c3f1; Oral; Feed; dose end: 103 week; group: systemic; systemic / in life observation / body weight / body weight
rat [17] = conditions: Prenatal developmental toxicity study, other, Oral, Gavage/Intubation, dose end: 15 GD
dog = conditions: Chronic toxicity; beagle; Oral; Feed; dose end: 12 month; group: systemic; systemic / in life observation / body weight / body weight + systemic / in life observation / clinical signs / inappetence + systemic / in …
[18] = systemic / organ weight / kidney / absolute + systemic / organ weight / kidney / relative to body weight + systemic / pathology microscopic…
[19] = systemic / organ weight / liver / absolute + systemic / organ weight / liver / relative to body weight + systemic / pathology microscopic / …
[20] = systemic / hematology / erythrocyte (rbc) count differential / erythrocyte (rbc) + systemic / hematology / hematocrit (hct) / hematocrit (…
[21] = systemic / hematology / hematocrit (hct) / hematocrit (hct) + systemic / hematology / hemoglobin (hgb) / hemoglobin (hgb) + systemic / organ…
[22] = systemic / pathology microscopic / kidney / mineralization
[23] = systemic / in life observation / body weight / body weight + systemic / pathology microscopic / kidney / hyperplasia + systemic / pathology …
[24] = systemic / pathology microscopic / kidney / hyperplasia + systemic / pathology microscopic / urinary bladder / hyperplasia + systemic / …
[25] = systemic / pathology microscopic / liver / fatty change
[26] = systemic / pathology microscopic / pituitary gland / adenoma + systemic / pathology microscopic / adrenal gland / pheochromocytoma nos + …
[27] = group: developmental, systemic / in life observation / body weight / fetal weight
[28] = group: maternal, systemic / in life observation / body weight / dam weight + systemic / in life observation / clinical signs / abnormal respiratory sounds + …
[29] = group: maternal, systemic / in life observation / body weight / body weight gain + systemic / in life observation / clinical signs / fur (altered appearance…

Structure (SMILES): CC(O)CCl (stereo not given) [1-Chloro-2-propanol]
- LOAEL (mouse [1]; [18]): 340 mg/kg/day
- NOAEL (mouse [1]; [18]): 170 mg/kg/day
- LEL (mouse [1]; [19]): 7 mg/kg/day
- NEL (mouse [1]; [19]): < 7 mg/kg/day
- LOAEL (rat [2]; [20]): 100 mg/kg/day
- NOAEL (rat [2]; [20]): 35 mg/kg/day
- LEL (rat [2]; [21]): 5 mg/kg/day
- NEL (rat [2]; [21]): < 5 mg/kg/day

Structure (SMILES): Nc1cccc(Cl)c1 [3-Chloroaniline]
- LEL (mouse [3]): 10 mg/kg/day
- LOAEL (mouse [3]): 40 mg/kg/day
- NEL (mouse [3]): < 10 mg/kg/day
- NOAEL (mouse [3]): 20 mg/kg/day
- LEL (rat [4]): 10 mg/kg/day
- LOAEL (rat [4]): 20 mg/kg/day
- NEL (rat [4]): < 10 mg/kg/day
- NOAEL (rat [4]): 10 mg/kg/day

Structure (SMILES): NCCCCCCCCCCC(=O)O [11-Aminoundecanoic acid]
- LOAEL (rat [5]; systemic / pathology microscopic / kidney / hyperplasia + systemic / in life observation / body weight / body weight gain): 900 mg/kg/day
- NOAEL (rat [5]; systemic / pathology microscopic / kidney / hyperplasia + systemic / pathology microscopic / kidney / mineralization): 750 mg/kg/day
- LEL (rat [5]; [22]): 450 mg/kg/day
- NEL (rat [5]; [22]): < 450 mg/kg/day
- LEL (mouse [6]): 2250 mg/kg/day
- LOAEL (mouse [6]): 2250 mg/kg/day
- NEL (mouse [6]): 1800 mg/kg/day
- NOAEL (mouse [6]): 1800 mg/kg/day
- LOAEL (rat [7]; [23]): 750 mg/kg/day
- NOAEL (rat [7]; [23]): 375 mg/kg/day
- LEL (rat [7]; [24]): 375 mg/kg/day
- NEL (rat [7]; [24]): < 375 mg/kg/day
- LEL (mouse [8]): 1120 mg/kg/day
- LOAEL (mouse [8]): 1120 mg/kg/day
- NEL (mouse [8]): < 1120 mg/kg/day
- NOAEL (mouse [8]): < 1120 mg/kg/day

Structure (SMILES): COS(=O)(=O)OC [Dimethyl sulfate]
- LEL (rat [9]): 0.7 ppm
- LOAEL (rat [9]): > 1.5 ppm
- NEL (rat [9]): 0.1 ppm
- NOAEL (rat [9]): ≥ 1.5 ppm

Structure (SMILES): CN(C)[C@@H]1C(=O)C(C(N)=O)=C(O)[C@@]2(O)C(=O)C3=C(O)c4c(O)cccc4[C@@](C)(O)[C@H]3[C@H](O)[C@@H]12.Cl [Oxytetracycline hydrochloride]
- LEL (mouse [10]): 3750 mg/kg/day
- LOAEL (mouse [10]): 7500 mg/kg/day
- NEL (mouse [10]): 1880 mg/kg/day
- NOAEL (mouse [10]): 3750 mg/kg/day
- LEL (mouse [11]): 1400 mg/kg/day
- LOAEL (mouse [11]): > 1400 mg/kg/day
- NEL (mouse [11]): 650 mg/kg/day
- NOAEL (mouse [11]): ≥ 1400 mg/kg/day
- LEL (rat [12]): 1250 mg/kg/day
- LOAEL (rat [12]): > 2500 mg/kg/day
- NEL (rat [12]): < 1250 mg/kg/day
- NOAEL (rat [12]): ≥ 2500 mg/kg/day
- LEL (rat [13]): 155 mg/kg/day
- LOAEL (rat [13]): > 2500 mg/kg/day
- NEL (rat [13]): < 155 mg/kg/day
- NOAEL (rat [13]): ≥ 2500 mg/kg/day
- LEL (rat [14]; [25]): 1000 mg/kg/day
- NEL (rat [14]; [25]): < 1000 mg/kg/day
- LOAEL (rat [14]; [26]): > 2000 mg/kg/day
- NOAEL (rat [14]; [26]): ≥ 2000 mg/kg/day
- LEL (mouse [15]; [27]): 1320 mg/kg/day
- LOAEL (mouse [15]; [27]): > 2100 mg/kg/day
- NEL (mouse [15]; [27]): < 1320 mg/kg/day
- NOAEL (mouse [15]; [27]): ≥ 2100 mg/kg/day
- LEL (mouse [15]; group: maternal, systemic / in life observation / body weight / dam weight): 1670 mg/kg/day
- LOAEL (mouse [15]; [28]): > 2100 mg/kg/day
- NEL (mouse [15]; [28]): 1320 mg/kg/day
- NOAEL (mouse [15]; [28]): ≥ 2100 mg/kg/day
- LEL (mouse [16]): 1370 mg/kg/day
- LOAEL (mouse [16]): > 1370 mg/kg/day
- NEL (mouse [16]): 663 mg/kg/day
- NOAEL (mouse [16]): ≥ 1370 mg/kg/day
- LEL (rat [17]; [27]): 1200 mg/kg/day
- LOAEL (rat [17]; [27]): 1200 mg/kg/day
- NEL (rat [17]; [27]): < 1200 mg/kg/day
- NOAEL (rat [17]; [27]): < 1200 mg/kg/day
- LEL (rat [17]; [29]): 1200 mg/kg/day
- LOAEL (rat [17]; [29]): > 1500 mg/kg/day
- NEL (rat [17]; [29]): < 1200 mg/kg/day
- NOAEL (rat [17]; [29]): ≥ 1500 mg/kg/day
- LEL (dog): 125 mg/kg/day
- LOAEL (dog): 125 mg/kg/day
- NEL (dog): 50 mg/kg/day
- NOAEL (dog): 50 mg/kg/day
